PMC9957399, “New Insights into the Inhibition of Hesperetin on Polyphenol Oxidase: Inhibitory Kinetics, Binding Characteristics, Conformational Change and Computational Simulation” (Foods, 2023)
Marks after values point to notes of the source that are not given here.

How the values were obtained:
monophenolase = target: monophenolase; design: method as in PMID 28873682; settings: previous study; read-out: IC50 on the inhibition of monophenolase activity; cited from earlier work
PPO [1] = target: PPO (Agaricus bisporus, UniProt C7FF04); test: Kinetic analysis of inhibitory type (v vs [PPO], Lineweaver–Burk plots, L-dopa); type: biochemical, mushroom; settings: for inhibitory type: Lineweaver–Burk plots, hesperetin 0, 300, 600, 1200 μM
Description: The inhibitory type of hesperetin against PPO could be evaluated using Lineweaver–Burk plots, and the mixed inhibition was described through Equation (1):(1) 1/v=Km/Vmax(1+[I]/Ki)1/[S]+1/Vmax(1+[I]/αKi) where v and Vmax represent enzyme reaction velocity and its maximum value, respectively. [I], [S] and Km are the concentrations of hesperetin and L-dopa, and the Michaelis–Menten constant, respectively. α denotes the apparent coefficient and Ki represents dissociation constant of hesperetin binding with free PPO, which can be calculated using the secondary Equations (2) and (3). (2) Slope=Km/Vmax+Km[I]/VmaxKi (3) Y-intercept=1/Vmaxapp=1/Vmax+1/αVmaxKi[I]
At different concentrations of hesperetin, the effect on the enzymatic reaction rate (ΔOD/min) by increasing the concentrations of PPO were shown in Figure 1E. […] As the concentration of hesperetin increased, the slopes of the lines declined.
Four lines intersected in the second quadrant. Either the slopes or the Y-intercept of four lines augmented with the rising concentrations of hesperetin, which represented the values of Km increased in a concentration-dependent manner while that of Vmax decreased. […] The inhibition mechanism of hesperetin against PPO deserved further exploration. […] Thus, hesperetin may have a better chance to bind with free PPO instead of PPO–hesperetin complex.

PPO [2] = test system: T1, PPO; test: Fluorometric titration (fluorescence quenching of PPO); type: binding, mushroom
T1 construct: purchased Worthington Biochemical Co. (Lakewood, CO, USA)
Experimental: Fluorescence spectra were measured at 298, 304 and 310 K by a fluorophotometer (F–7000, Hitachi, Tokyo, Japan). Briefly, the concentration of PPO was 2.0 μM, and the same volume of hesperetin was added into the PPO solution (2.0 mL) 10 times (0→25.0 μM). After each addition of hesperetin, 3 min was timed to equilibrate the mixed system. Then, the emission spectra (290–500 nm) were scanned at fixed excitation wavelength (280 nm).
To deduct the effect of internal filtration, all measured fluorescence data were processed through Formula (5):(5) FC=FMe^(A1+A2)/2 where FC and FM represent the corrected and detected fluorescence, respectively. A1 and A2 stand for the absorbance values of hesperetin at excitation and emission wavelengths, respectively.
The Stern–Volmer curves for PPO fluorescence quenched by hesperetin at each temperature were obtained through Equation (6):(6) F0/F=1+Kqτ0[Q]=1+Ksv[Q] where F and F0 denote the fluorescence intensity of PPO with and without hesperetin, respectively. Ksv, Kq and [Q] represent the fluorescence quenching constant, quenching rate constant and the concentration of hesperetin, respectively. τ0 represents the average fluorophore lifetime without hesperetin, and its value is usually equal to 10^−8 s.
Based on the following equation, the information about the interaction between hesperetin and PPO were obtained, including binding constant (Ka) and binding number (n):(7) logF0−F/F=nlogKa−nlog1/[Qt]−(F0−F)[Pt]/F0 where [Qt] and [Pt] stand for the concentrations of hesperetin and PPO. […] The n values at 298, 304 and 310 K were all equal to 1, implying that only one site existed when hesperetin interacted with PPO.
The values of ΔH°, ΔS° and ΔG°, which refer to enthalpy change, entropy change and free energy change, respectively, were obtained by the van ’t Hoff equations [42]:(8) logKa=−ΔH°/2.303RT+ΔS°/2.303R (9) ΔG°=ΔH°−TΔS° where T represents temperature; R represents gas constant, and its value is 8.314 J mol^−1 K^−1.

PPO [3] = test system: PPO; design: method as in PMID 22093614; settings: cited from earlier work
PPO (monophenolase) = PPO (monophenolase) (Agaricus bisporus, UniProt C7FF04); test: PPO activity assay, monophenolase (L-tyrosine oxidation); type: biochemical, mushroom
Sequence of PPO (monophenolase) (C7FF04 1-392): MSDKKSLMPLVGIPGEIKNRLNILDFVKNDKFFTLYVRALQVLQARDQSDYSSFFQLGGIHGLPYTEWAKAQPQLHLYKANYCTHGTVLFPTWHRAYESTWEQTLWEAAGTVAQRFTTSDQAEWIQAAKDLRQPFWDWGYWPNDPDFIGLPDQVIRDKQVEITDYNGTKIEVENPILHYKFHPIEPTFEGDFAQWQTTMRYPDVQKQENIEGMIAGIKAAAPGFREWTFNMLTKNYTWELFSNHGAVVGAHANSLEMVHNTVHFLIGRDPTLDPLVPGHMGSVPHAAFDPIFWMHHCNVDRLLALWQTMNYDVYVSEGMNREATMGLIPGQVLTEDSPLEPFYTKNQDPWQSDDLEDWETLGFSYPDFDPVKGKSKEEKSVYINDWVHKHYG
Sequence of PPO (monophenolase) (G1K3P4 1-150 partner): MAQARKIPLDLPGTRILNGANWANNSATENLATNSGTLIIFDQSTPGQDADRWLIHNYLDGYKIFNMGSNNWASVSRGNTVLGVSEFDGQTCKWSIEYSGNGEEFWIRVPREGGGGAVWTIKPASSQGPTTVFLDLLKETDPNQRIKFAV
Experimental: To determine the monophenolase inhibitory activity of hesperetin, PPO (0.2 μΜ) was mixed with various concentrations of hesperetin (0, 25, 50, 100, 150, 200, 250 and 500 μM), and the mixtures were incubated at 30 °C. After 1 h, L-tyrosine (0.5 mΜ, substrate) was added to the mixtures, and the detection began.

Sequence of PPO (Agaricus bisporus, UniProt C7FF04) (C7FF04 1-392): as the sequence (C7FF04 1-392) above
Sequence of PPO (Agaricus bisporus, UniProt C7FF04) (G1K3P4 entry or part of it, further chain): as the sequence (G1K3P4 1-150 partner) above

Compound: O=c1c(O)c(-c2ccc(O)c(O)c2)oc2cc(O)cc(O)c12 [quercetin]
- IC50 (monophenolase): 19.4 ± 0.35 µM

Compound: COc1ccc([C@@H]2CC(=O)c3c(O)cc(O)cc3O2)cc1O [hesperetin, Hesperetin]
- α (apparent coefficient) (PPO [1]; L-dopa substrate, mixed inhibition model): 2.93
- inhibitory type (PPO [1]): mixed-type inhibitor
- inhibitory type (PPO [1]; listed as Hesperetin): mixed inhibitor
- reversibility of inhibition (PPO [1]; plots of v versus [PPO], L-dopa 0.5 mM): reversibly inhibited
- Kq (quenching rate constant) (PPO [2]; 298, 304 and 310 K, τ0 = 10^−8 s, compared with maximum diffusion collision quenching constant): > 2e+10 M⁻¹ s⁻¹
- Ka (PPO [2]; 298 K): 19800 L/mol
- Ka (binding constant) (PPO [2]; 298 K): 1.98 ± 0.01 ^a ×10^4 L mol^−1
- Ksv (PPO [2]; 298 K): (1.71 ± 0.01) × 10^4 L mol^−1
- Ksv (quenching constant) (PPO [2]; 298 K): 1.71 ± 0.01 ^a ×10^4 L mol^−1
- n (number of binding sites) (PPO [2]; 298 K): 1.23 ± 0.03
- Ka (PPO [2]; 304 K): 20500 L/mol
- Ka (binding constant) (PPO [2]; 304 K): 2.05 ± 0.02 ^b ×10^4 L mol^−1
- Ksv (PPO [2]; 304 K): (1.76 ± 0.02) × 10^4 L mol^−1
- Ksv (quenching constant) (PPO [2]; 304 K): 1.76 ± 0.02 ^b ×10^4 L mol^−1
- n (number of binding sites) (PPO [2]; 304 K): 1.08 ± 0.01
- Ka (PPO [2]; 310 K): 22200 L/mol
- Ka (binding constant) (PPO [2]; 310 K): 2.22 ± 0.05 ^c ×10^4 L mol^−1
- Ksv (PPO [2]; 310 K): (2.09 ± 0.02) × 10^4 L mol^−1
- Ksv (quenching constant) (PPO [2]; 310 K): 2.09 ± 0.02 ^c ×10^4 L mol^−1
- n (number of binding sites) (PPO [2]; 310 K): 0.99 ± 0.04
- n values (PPO [2]; at 298, 304 and 310 K): 1
- inhibitory type (previous study) (PPO [3]): competitive PPO inhibitor
- lag time of L-tyrosine oxidation (PPO (monophenolase); hesperetin at 500.0 μM, extended from 1.08 min without inhibitor): 10.33 min
- remaining activity at 100 µM (PPO (monophenolase); read-out: residual activity of PPO (monophenolase)): 41.2%
